Measurements taken from PMC9569593, “Measurement of Hepatic CYP3A4 and 2D6 Activity Using Radioiodine-Labeled O-Desmethylvenlafaxine” (International Journal of Molecular Sciences, 2022).
Read-outs that look alike come from different tables or passages of the source.

Columns and labels:
[1] = for Biological distribution, Blood / Biological distribution, Brain / Biological distribution, Gallbladder / Biological distribution, Heart / Biological distribution, Kidney / Biological distribution, Large intestines / Biological distribution, Liver / Biological distribution, Lung / Biological distribution, Pancreas / Biological distribution, Small intestines / Biological distribution, Spleen / Biological distribution, Stomach / Biological distribution, Thyroid / Biological distribution, Urine: control normal mice, i.v.
Method: For biological distribution in normal mice, ^125I-ODV was prepared to a radioactivity concentration of 185 kBq/mL by adding saline. A total of 20 mice fasted for 6 hr were administered ^125I-ODV via the tail vein (18.5 kBq/100 µL/mouse). After 5, 15, 30, and 60 min, normal mice were euthanized under isoflurane anesthesia (n = 4), and the following tissues were collected: blood, brain, heart, lung, thyroid, gallbladder, liver, spleen, pancreas, stomach, small intestines, large intestines, and kidney. Tissues were weighed, and radioactivity was quantified using a γ-ray counter to calculate the %ID or percent injected dose per gram of tissue (%ID/g).

CYP = settings: for fraction of 125I-ODV / peak of 125I-ODV metabolite: NADPH [+]
Method: Animal studies were approved by the Animal Care Committee at Kanazawa University (AP-173851) and were conducted in accordance with international standards for animal welfare and institutional guidelines. For preparation of the pooled mouse liver homogenates (MLH), three six-week-old ddY mice (Japan SLC, Tokyo, Japan) were euthanized under anesthesia with isoflurane, and the removed livers were weighed. After adding Krebs–Ringer phosphate buffer (pH 7.4), the pooled livers were homogenized with an ultrasonic homogenizer (SONIFIER250, Branson, MO, USA), and the protein content was measured according to the bicinchoninic acid method. The pooled MLH was stored at −80 °C.
For analysis of NADPH-mediated metabolism of ^125I-ODV, NADPH was used as an energy source of CYP-mediated metabolism. Adding an NADPH-generating system produced a state in which CYP was active. NADPH-mediated metabolism of ^125I-ODV was examined in a mixture consisting of an NADPH-generating system (0.5 mM β-NADP^+, 5 mM MgCl2, 5 mM G6P, and 1 U/mL G6PD), 100 mM sodium potassium phosphate buffer (pH 7.4), 50 μM EDTA disodium salt, and 1000 μg protein/20 μL pooled MLH in a final volume of 250 μL (NADPH [+]). […] The samples were incubated at 37 °C for 5, 15, 30, and 60 min with gentle shaking, ethanol was added to stop the reactions, and the samples were centrifuged at 18,000 g for 5 min. The supernatants in each sample were analyzed by HPLC. The mobile phase consisted of 70% 20 mM KH2PO4 buffer (pH 4.0) and 30% acetonitrile at a flow rate of 1.0 mL/min (n = 3).

[2] = normal mice, after 5 min of administration

Structure (SMILES): CN(C)CC(c1ccc(O)c([125I])c1)C1(O)CCCCC1 (stereo not drawn) [^125I-ODV, iodine-125-labeled O-desmethylvenlafaxine]
- Biological distribution, Blood ([1]; 5 min): 1.89 %ID/g
- Biological distribution, Brain ([1]; 5 min): 0.80 %ID/g
- Biological distribution, Gallbladder ([1]; 5 min): 4.31 %ID/g
- Biological distribution, Heart ([1]; 5 min): 5.64 %ID/g
- Biological distribution, Kidney ([1]; 5 min): 22.95 %ID/g
- Biological distribution, Large intestines ([1]; 5 min): 1.32 %ID/organ
- Biological distribution, Liver ([1]; 5 min): 6.91 %ID/g
- Biological distribution, Lung ([1]; 5 min): 27.04 %ID/g
- Biological distribution, Pancreas ([1]; 5 min): 7.87 %ID/g
- Biological distribution, Small intestines ([1]; 5 min): 6.85 %ID/organ
- Biological distribution, Spleen ([1]; 5 min): 9.22 %ID/g
- Biological distribution, Stomach ([1]; 5 min): 2.44 %ID/organ
- Biological distribution, Thyroid ([1]; 5 min): 0.06 %ID/organ
- Biological distribution, Urine ([1]; 5 min): 0.63 %ID/organ
- Biological distribution, Blood ([1]; 15 min): 1.31 %ID/g
- Biological distribution, Brain ([1]; 15 min): 0.75 %ID/g
- Biological distribution, Gallbladder ([1]; 15 min): 5.26 %ID/g
- Biological distribution, Heart ([1]; 15 min): 2.71 %ID/g
- Biological distribution, Kidney ([1]; 15 min): 16.37 %ID/g
- Biological distribution, Large intestines ([1]; 15 min): 1.18 %ID/organ
- Biological distribution, Liver ([1]; 15 min): 6.04 %ID/g
- Biological distribution, Lung ([1]; 15 min): 16.75 %ID/g
- Biological distribution, Pancreas ([1]; 15 min): 6.04 %ID/g
- Biological distribution, Small intestines ([1]; 15 min): 7.70 %ID/organ
- Biological distribution, Spleen ([1]; 15 min): 4.79 %ID/g
- Biological distribution, Stomach ([1]; 15 min): 3.19 %ID/organ
- Biological distribution, Thyroid ([1]; 15 min): 0.03 %ID/organ
- Biological distribution, Urine ([1]; 15 min): 3.37 %ID/organ
- Biological distribution, Blood ([1]; 30 min): 1.34 %ID/g
- Biological distribution, Brain ([1]; 30 min): 0.73 %ID/g
- Biological distribution, Gallbladder ([1]; 30 min): 24.23 %ID/g
- Biological distribution, Heart ([1]; 30 min): 2.04 %ID/g
- Biological distribution, Kidney ([1]; 30 min): 14.27 %ID/g
- Biological distribution, Large intestines ([1]; 30 min): 0.68 %ID/organ
- Biological distribution, Liver ([1]; 30 min): 5.45 %ID/g
- Biological distribution, Lung ([1]; 30 min): 13.30 %ID/g
- Biological distribution, Pancreas ([1]; 30 min): 5.02 %ID/g
- Biological distribution, Small intestines ([1]; 30 min): 8.47 %ID/organ
- Biological distribution, Spleen ([1]; 30 min): 3.45 %ID/g
- Biological distribution, Stomach ([1]; 30 min): 2.75 %ID/organ
- Biological distribution, Thyroid ([1]; 30 min): 0.04 %ID/organ
- Biological distribution, Urine ([1]; 30 min): 3.69 %ID/organ
- Biological distribution, Blood ([1]; 60 min): 0.74 %ID/g
- Biological distribution, Brain ([1]; 60 min): 0.60 %ID/g
- Biological distribution, Gallbladder ([1]; 60 min): 33.05 %ID/g
- Biological distribution, Heart ([1]; 60 min): 1.00 %ID/g
- Biological distribution, Kidney ([1]; 60 min): 9.42 %ID/g
- Biological distribution, Large intestines ([1]; 60 min): 0.47 %ID/organ
- Biological distribution, Liver ([1]; 60 min): 2.89 %ID/g
- Biological distribution, Lung ([1]; 60 min): 5.01 %ID/g
- Biological distribution, Pancreas ([1]; 60 min): 2.92 %ID/g
- Biological distribution, Small intestines ([1]; 60 min): 11.03 %ID/organ
- Biological distribution, Spleen ([1]; 60 min): 1.75 %ID/g
- Biological distribution, Stomach ([1]; 60 min): 1.88 %ID/organ
- Biological distribution, Thyroid ([1]; 60 min): 0.02 %ID/organ
- Biological distribution, Urine ([1]; 60 min): 7.31 %ID/organ
- accumulation in the kidneys [1, 2]: more than 20%
- accumulation in the lungs [1, 2]: more than 20%
- fraction of 125I-ODV (CYP; end value of the decrease): ~54%
- peak of 125I-ODV metabolite (CYP; end value of the increase): ~46%
- fraction of 125I-ODV (CYP; start value of the decrease): about 85%
- peak of 125I-ODV metabolite (CYP; start value of the increase): about 0%
- percentage of metabolite (CYP; NADPH [−], 37 °C, 15 min): 1.52%
